Test results from PMC5642506 (Oncotarget, 2017).
Read-outs that look alike come from different tables or passages of the source.

Key:
[1] = system: pretreated nonsquamous lung cancer; design: method as in PMID 27697581; details: cited from earlier work
[2] = Pharmacokinetic analyses (plasma, non-compartmental); format: in vivo, human (patients)
Procedure: Patients underwent history and physical examination, performance status, measurement of vital signs, routine hematology and biochemistry studies, thyroid studies and tumor imaging with computed tomography scans at baseline. Blood pressure monitoring and bloodwork was repeated weekly during cycle 1 and then on day 1 of each subsequent cycle. Patients were assessed on day 1 of each subsequent cycle and as needed for toxicity management. Tumor assessment with imaging was performed at every second cycle (8 weeks). Urinalysis was performed on day 1 of each cycle, ophthalmologic examination every 12 weeks, and pharmacokinetic sampling on day 14 and 28 of cycle 1.
Patients were required not to smoke or chew tobacco products for at least 14 days prior to study entry, and to abstain at least until the completion of pharmacokinetic sampling on day 28 of cycle 1.

[3] = Dose escalation: DLT and recommended phase II dose; design: species or system human (patients); details: human, in vivo
Procedure: (§1) In this dose-finding phase I trial, escalating doses of foretinib were added to standard dose erlotinib as continuous daily dosing. Patients were permitted to remain on study treatment until the development of disease progression, unacceptable toxicity or withdrawal of consent. To facilitate pharmacokinetic studies and ensure tolerability of standard therapy, patients received erlotinib alone daily for 14 days during cycle 1, and foretinib was initiated on day 15, cycle 1 if erlotinib was well tolerated. Daily dosing for both agents thereafter was continuous.
Toxicity was evaluated continuously according to the Common Terminology Criteria for Adverse Events (CTCAE), Version 4.0. […] If 1/3 experienced DLT, at least 3 additional patients were treated for a total of 6 evaluable patients treated at that dose level. If 2/3 or 2/6 patients experienced DLT, dose escalation was to be stopped and that dose declared the maximum tolerated dose (MTD), with the next lower dose to be declared the recommended phase II dose for foretinib in combination with erlotinib. While designed as a 3+3 dose escalation study, 3+4 was allowed to ensure that there would be a minimum of 3 evaluable patients without having to reopen a cohort to replace a patient. Intra-patient dose escalation was not allowed. […]

[4] = Treatment delivery, dose intensity, discontinuation; format: in vivo, human (patients)
Procedure: as §1

[5] = system: pretreated EGFR wild type NSCLC; design: method as in PMID 27825638; details: cited from earlier work
[6] = system: EGFR mutant lung cancer cells with upregulated HGF and increased MET copy number; design: method as in earlier work; details: preclinical studies; cited from earlier work
[7] = Erlotinib D14, DL1 erlotinib 100 mg daily alone, N=6
[8] = Erlotinib D14, DL2 erlotinib 150 mg daily alone, N=9
[9] = Erlotinib D14, DL3 erlotinib 150 mg daily alone, N=7
[10] = Erlotinib D28, DL1 erlotinib 100 mg + foretinib 30 mg daily, N=7
[11] = Erlotinib D28, DL2 erlotinib 150 mg + foretinib 30 mg daily, N=11
[12] = Erlotinib D28, DL3 erlotinib 150 mg + foretinib 45 mg daily, N=6
[13] = human, plasma, oral, 100 mg, Erlotinib D14, DL1 erlotinib 100 mg daily alone, N=6
[14] = human, plasma, oral, 150 mg, Erlotinib D14, DL2 erlotinib 150 mg daily alone, N=9
[15] = human, plasma, oral, 150 mg, Erlotinib D14, DL3 erlotinib 150 mg daily alone, N=7
[16] = human, plasma, oral, Erlotinib D28, DL1 erlotinib 100 mg + foretinib 30 mg daily, N=7
[17] = human, plasma, oral, Erlotinib D28, DL2 erlotinib 150 mg + foretinib 30 mg daily, N=11
[18] = human, plasma, oral, Erlotinib D28, DL3 erlotinib 150 mg + foretinib 45 mg daily, N=6
[19] = Foretinib D28, DL1 foretinib 30 mg + erlotinib 100 mg daily, N=7
[20] = Foretinib D28, DL2 foretinib 30 mg + erlotinib 150 mg daily, N=11
[21] = Foretinib D28, DL3 foretinib 45 mg + erlotinib 150 mg daily, N=6
[22] = human, plasma, oral, Foretinib D28, DL1 foretinib 30 mg + erlotinib 100 mg daily, N=7
[23] = human, plasma, oral, Foretinib D28, DL2 foretinib 30 mg + erlotinib 150 mg daily, N=11
[24] = human, plasma, oral, Foretinib D28, DL3 foretinib 45 mg + erlotinib 150 mg daily, N=6

For `C[C@@H](Oc1cc(-c2cnn(C3CCNCC3)c2)cnc1N)c1c(Cl)ccc(F)c1Cl` [crizotinib], the “RP2D, crizotinib” value ([1]; BID, plus erlotinib 100 mg daily) is given as 150 mg.
For `C#Cc1cccc(Nc2ncnc3cc(OCCOC)c(OCCOC)cc23)c1` [erlotinib], the Cavg [2, 7] was 1254 (SD 622) ng/mL, the Clast [2, 7] was 1106 (SD 710) ng/mL and the Cmax [2, 7] was 1719 (SD 624) ng/mL. The “Cmax Dose Norm” value [2, 7] was 17.2 (SD 6.24) ng/mL/mg, the Cmin [2, 7] was 815 (SD 641) ng/mL and the Tmin [2, 7] was 4.17 (SD 9.71) hr. For the same molecule, the Cavg [2, 8] was 1466 (SD 507) ng/mL, the Clast [2, 8] was 1137 (SD 419) ng/mL and the Cmax [2, 8] was 2335 (SD 770) ng/mL. For the same molecule, the “Cmax Dose Norm” value [2, 8] was 15.6 (SD 5.13) ng/mL/mg, the Cmin [2, 8] was 1047 (SD 437) ng/mL and the Tmin [2, 8] was 13.33 (SD 12.65) hr. For the same molecule, the Cavg [2, 9] was 1548 (SD 621) ng/mL, the Clast [2, 9] was 1247 (SD 565) ng/mL and the “Cmax Dose Norm” value [2, 9] was 14.91 (SD 4.14) ng/mL/mg. The Cmin [2, 9] was 1027 (SD 507) ng/mL, the Tmin [2, 9] was 4.71 (SD 8.77) hr and the Cavg [2, 10] was 1497 (SD 975) ng/mL. For the same molecule, the Clast [2, 10] was 1300 (SD 861.44) ng/mL, the Cmax [2, 10] was 2387 (SD 1707) ng/mL and the “Cmax Dose Norm” value [2, 10] was 23.87 (SD 17.07) ng/mL/mg. The Cmin [2, 10] was 1092 (SD 894) ng/mL, the Tmin [2, 10] was 11.2 (SD 12.07) hr and the Cavg [2, 11] was 1579 (SD 643) ng/mL. The Clast [2, 11] was 1343 (SD 687) ng/mL, the “Cmax Dose Norm” value [2, 11] was 17.64 (SD 6.49) ng/mL/mg and the Cmin [2, 11] was 1293 (SD 688) ng/mL. For the same molecule, the Tmin [2, 11] was 13.27 (SD 12.34) hr, the AUCt [2, 12] was 40765 (SD 16673) ng*hr/mL and the Cavg [2, 12] was 1699 (SD 695) ng/mL. For the same molecule, the Clast [2, 12] was 1283 (SD 697) ng/mL, the “Cmax Dose Norm” value [2, 12] was 16.48 (SD 4.78) ng/mL/mg and the Cmin [2, 12] was 1244 (SD 725) ng/mL. The Tmin [2, 12] was 16.17 (SD 12.14) hr, the AUC(0-t) [2, 13] was 30100 ng·h/mL and the Tmax [2, 13] was 7.67 h. For the same molecule, the clearance [2, 13] was 28.6 mL/min, the AUC(0-t) [2, 14] was 35200 ng·h/mL and the Tmax [2, 14] was 2.22 h. The clearance [2, 14] was 85.4 mL/min, the AUC(0-t) [2, 15] was 35500 ng·h/mL and the Tmax [2, 15] was 3.86 h. For the same molecule, the clearance [2, 15] was 79.9 mL/min, the Cmax ([2]; human, plasma, oral, 150 mg, Erlotinib D14, DL3 erlotinib 150 mg daily alone, N=7, read-out: Cmax) was 2240 ng/mL and the AUC(0-t) [2, 16] was 35900 ng·h/mL. The Tmax [2, 16] was 2.29 h, the clearance [2, 16] was 33.9 mL/min and the AUC(0-t) [2, 17] was 36200 ng·h/mL. For the same molecule, the Tmax [2, 17] was 2.64 h, the clearance [2, 17] was 76.1 mL/min and the Tmax [2, 18] was 2.33 h. The clearance [2, 18] was 76.2 mL/min, the Cmax ([2]; human, plasma, oral, Erlotinib D28, DL3 erlotinib 150 mg + foretinib 45 mg daily, N=6, read-out: Cmax) was 2470 ng/mL and the “recommended phase II dose, erlotinib” value [3] was 150 mg. For the same molecule, the “% receiving >=90% planned dose intensity, Erlotinib” value ([4]; DL1 (N=9), 30/100 mg) was 78%, the “% receiving >=90% planned dose intensity, Erlotinib” value ([4]; DL2 (n=15), 30/150 mg) was 40% and the “% receiving >=90% planned dose intensity, Erlotinib” value ([4]; DL3 (N=7), 45/150 mg) was 43%. For the same molecule, the “RP2D, erlotinib” value ([1]; daily, plus crizotinib 150 mg BID) was 100 mg, the “erlotinib exposure, pharmacokinetic interaction” value ([1]; with crizotinib) was “increased erlotinib exposure” and the PFS [5] was 1.8 months.
In the case of `COc1cc2c(Oc3ccc(NC(=O)C4(C(=O)Nc5ccc(F)cc5)CC4)cc3F)ccnc2cc1OCCCN1CCOCC1` [foretinib], the “sensitivity when added to erlotinib” value [6] is given as “significantly increases sensitivity”, the Cavg [2, 19] is given as 30.35 (SD 9.23) ng/mL and the Clast [2, 19] is given as 27.29 (SD 10.66) ng/mL. The “Cmax Dose Norm” value [2, 19] was 1.45 (SD 0.59) ng/mL/mg, the Cmin [2, 19] was 22.79 (SD 7.74) ng/mL and the Tmin [2, 19] was 12.29 (SD 11.34) hr. For the same molecule, the Cavg [2, 20] was 29.17 (SD 13.58) ng/mL, the Clast [2, 20] was 24.12 (SD 9.34) ng/mL and the “Cmax Dose Norm” value [2, 20] was 1.49 (SD 0.74) ng/mL/mg. For the same molecule, the Cmin [2, 20] was 22.47 (SD 10.61) ng/mL, the Tmin [2, 20] was 13.36 (SD 12.23) hr and the Cavg [2, 21] was 42.07 (SD 17.31) ng/mL. The Clast [2, 21] was 34.22 (SD 17.3) ng/mL, the “Cmax Dose Norm” value [2, 21] was 1.21 (SD 0.4) ng/mL/mg and the Cmin [2, 21] was 31.96 (SD 18.16) ng/mL. The Tmin [2, 21] was 12.0 (SD 13.15) hr, the AUC(0-t) [2, 22] was 728 ng·h/mL and the Tmax [2, 22] was 3.14 h. For the same molecule, the clearance [2, 22] was 419 mL/min, the Cmax ([2]; human, plasma, oral, Foretinib D28, DL1 foretinib 30 mg + erlotinib 100 mg daily, N=7, read-out: Cmax) was 43.4 ng/mL and the AUC(0-t) [2, 23] was 681 ng·h/mL. For the same molecule, the Tmax [2, 23] was 3.55 h, the clearance [2, 23] was 492 mL/min and the Cmax ([2]; human, plasma, oral, Foretinib D28, DL2 foretinib 30 mg + erlotinib 150 mg daily, N=11, read-out: Cmax) was 44.8 ng/mL. For the same molecule, the AUC(0-t) [2, 24] was 1010 ng·h/mL, the Tmax [2, 24] was 3.5 h and the clearance [2, 24] was 829 mL/min. For the same molecule, the Cmax ([2]; human, plasma, oral, Foretinib D28, DL3 foretinib 45 mg + erlotinib 150 mg daily, N=6, read-out: Cmax) was 55.9 ng/mL, the “recommended phase II dose, foretinib” value [3] was 30 mg and the “% receiving >=90% planned dose intensity, Foretinib Cycle 1” value ([4]; DL1 (N=9), 30/100 mg) was 100%. The “% receiving >=90% planned dose intensity, Foretinib Cycle >= 2” value ([4]; DL1 (N=9), 30/100 mg) was 50%, the “% receiving >=90% planned dose intensity, Foretinib Cycle 1” value ([4]; DL2 (n=15), 30/150 mg) was 67% and the “% receiving >=90% planned dose intensity, Foretinib Cycle >= 2” value ([4]; DL2 (n=15), 30/150 mg) was 31%. For the same molecule, the “% receiving >=90% planned dose intensity, Foretinib Cycle 1” value ([4]; DL3 (N=7), 45/150 mg) was 86% and the “% receiving >=90% planned dose intensity, Foretinib Cycle >= 2” value ([4]; DL3 (N=7), 45/150 mg) was 0.
